A short description of data set [1]: Cytotoxicity, general statement. The settings on record: biocompatible solution according to the invention, in comparison with trypan blue. The class given is cell-based. The text has this:
Trypan blue is a cytotoxic substance, as is known for example from Solomon K D et al: Protective effect of the anterior lens capsule during extra capsular cataract extraction, OPHTHALMOLOGY, Vol 96, No 5, May 1989, 591-597, and Veckener M et al: Ocular toxicity study of trypan blue injected into the vitreous cavity of rabbit eyes, Graefe's Arch. Clin. Ex. Ophthalmol. (2002) 239:698-704. When using trypan blue therefore complete flushing out in particular of the region of the eye in which the trypan blue was used as a dye agent is required immediately after the cataract operation in order to prevent it from remaining in the body or in the eye for a prolonged period of time.

For data set [2] the following is noted: Cahen 1964 and BLURHEX product information; cited from earlier work.
The conditions of data set [3]: known from Solomon et al 1989 and Veckener et al 2002 (rabbit eyes); cited from earlier work.
Another data set concerns ARPE-19-cells. The experiment in a line: Cytotoxicity by protein content of treated cell cultures vs untreated controls (growth inhibition). The class given is cell-based. The settings on record: differing levels of concentration, 68 to 72 hours in an incubator, protein content vs untreated control. The text has this: (§1) The vitality of the cells and a deduced cytotoxicity is quantitatively determined by determining the protein content of the treated cell cultures in comparison with untreated control cultures. The protein content is ascertained by a colorimetric procedure with a standard process.
(§2) It is found in this respect that cytotoxicity of a significant level corresponding to growth inhibition of more than 30% is not present.

The subject of a further data set is mouse cells L 929. Described as above. The class given is cell-based. Conditions: L 929 cells, differing levels of concentration, 68 to 72 hours in an incubator, protein content vs untreated control.
Source text: as §1, §2

Like-named read-outs stand apart in the source and are kept apart here.

Regarding brilliant blue R, the cytotoxicity result in data set [1] is “does not have any cytotoxicity”.
`Cc1cc(-c2ccc(/N=N/c3c(S(=O)(=O)O)cc4cc(S(=O)(=O)O)cc(N)c4c3O)c(C)c2)ccc1/N=N/c1c(S(=O)(=O)O)cc2cc(S(=O)(=O)O)cc(N)c2c1O` [Trypan blue, trypan blue]: in data set [2], the “teratogenic or mutagenic action” value was “teratogenic or mutagenic action”. Also, in data set [3], the cytotoxicity result is reported as “cytotoxic”.
As to `CCN(CC)c1ccc(C(=C2C=CC(=[N+](CC)CC)C=C2)c2cc(O)c(S(=O)(=O)[O-])cc2S(=O)(=O)[O-])cc1.CCN(CC)c1ccc(C(=C2C=CC(=[N+](CC)CC)C=C2)c2cc(O)c(S(=O)(=O)[O-])cc2S(=O)(=O)[O-])cc1.[Ca+2]` [patent blue V], the cytotoxicity entry in data set [1] is “does not have any cytotoxicity”. The “growth inhibition (cytotoxicity of a significant level = more than 30%)” value with ARPE-19-cells and in the data set on mouse cells L 929 was ≤ 30% each time.

These data come from patent publication US20060140863A1, “Production of a dye agent for colouring cells in the human or animal body” (Fluoron GMBH, priority 2002, published 2006).
